Results reported in patent US20250163119A1, “COMPOUNDS FOR THE TREATMENT OF DIABETES OR OBESITY” (Eli Lilly and Company, priority 2023, published 2025).
*1 amine or outer side, *2 acyl side, *3 side chain or, on linkers, in order; H or OH if unused. Where a SMILES comes first, the peptide text is derived from it. Side-chain parts run from the residue outwards. [ ]: non-standard residue; d: D form. The star is where a group is joined. C20 diacid = O=C(O)CCCCCCCCCCCCCCCCCCC(=O)*; γGlu = O=C(O)[C@H](CCC(=O)[*:2])N[*:1]; εLys = N[C@@H](CCCCN[*:1])C(=O)[*:2]; αMeL = CC(C)C[C@](C)(N)C(=O)O; AEEA = NCCOCCOCC(=O)O; Aib = CC(C)(N)C(=O)O; Ahx = NCCCCCC(=O)O; βAla = NCCC(=O)O

Legend:
human CRHR2 = target: T1, human CRHR2 (Homo sapiens, UniProt Q13324); experiment: Human CRHR2 cAMP assay (HTRF) in HEK293 cells stably expressing human CRHR2; format: cell-based; settings: HEK293 cells overexpressing human CRHR2; relative EC50, maximum 10 nM human UCN2; mean ± SE; read-out: hCRHR2 cAMP EC50 (pM, ± SE)
T1 construct: expressed in transfected cells
T1 sequence (Q13324 1-438 isoform Q13324-2): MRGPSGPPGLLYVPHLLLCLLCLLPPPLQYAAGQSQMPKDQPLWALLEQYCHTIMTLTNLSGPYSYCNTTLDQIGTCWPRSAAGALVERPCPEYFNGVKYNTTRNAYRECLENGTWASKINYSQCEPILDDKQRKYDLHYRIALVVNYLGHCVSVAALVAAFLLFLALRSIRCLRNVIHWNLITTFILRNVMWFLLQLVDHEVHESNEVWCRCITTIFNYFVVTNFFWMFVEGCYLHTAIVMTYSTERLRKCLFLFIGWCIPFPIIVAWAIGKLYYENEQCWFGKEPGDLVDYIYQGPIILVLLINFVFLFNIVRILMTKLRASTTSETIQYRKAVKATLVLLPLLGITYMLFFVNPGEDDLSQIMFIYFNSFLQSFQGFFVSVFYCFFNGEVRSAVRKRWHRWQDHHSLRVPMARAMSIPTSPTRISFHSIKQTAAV
Summary of the method: (§1)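 Gs-coupled receptor activation was followed as intracellular cAMP in stably transfected HEK293 cells, 25,000 (CRHR1) or 5,000 (CRHR2) per well, with 0.25 mM IBMX present. Stimulation lasted 1 h at 37° C for CRHR1 and 30 min at room temperature for CRHR2.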

human CRHR1 = target: T2, human CRHR1 (Homo sapiens, UniProt P34998); experiment: Human CRHR1 cAMP assay (HTRF) in HEK293 cells stably expressing human CRHR1; format: cell-based; settings: HEK293 cells overexpressing human CRHR1; relative EC50, maximum 66 nM human UCN1; mean ± SE; read-out: hCRHR1 cAMP EC50 (pM, ± SE)
T2 construct: expressed in transfected cells
T2 sequence (P34998 24-415): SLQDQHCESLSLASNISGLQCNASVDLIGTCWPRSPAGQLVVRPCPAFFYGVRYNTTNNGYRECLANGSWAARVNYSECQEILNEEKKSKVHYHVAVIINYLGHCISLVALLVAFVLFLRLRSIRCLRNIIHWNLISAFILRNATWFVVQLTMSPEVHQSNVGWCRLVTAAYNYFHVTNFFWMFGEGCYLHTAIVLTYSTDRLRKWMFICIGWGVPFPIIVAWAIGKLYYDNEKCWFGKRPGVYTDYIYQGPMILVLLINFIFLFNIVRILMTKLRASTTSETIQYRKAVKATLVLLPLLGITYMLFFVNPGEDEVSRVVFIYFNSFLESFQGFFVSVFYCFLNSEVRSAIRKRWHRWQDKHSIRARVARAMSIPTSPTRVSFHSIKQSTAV
Summary of the method: as §1

Row | Compound | EC50 (human CRHR2) [pM] | EC50 (human CRHR1) [pM]
1 | CC[C@H](C)[C@H](NC(C)=O)C(=O)N[C@H](C(=O)N[C@H](C(=O)N[C@@H](CO)C(=O)N[C@@](C)(CC(C)C)C(=O)N[C@@H](CC(=O)O)C(=O)N[C@@H](C(=O)N1CCC[C@H]1C(=O)N[C@H](C(=O)NCC(=O)N[C@@](C)(CC(C)C)C(=O)N[C@@H](CC(C)C)C(=O)N[C@@H](CCC(N)=O)C(=O)N[C@H](C(=O)N[C@@H](CCCCN)C(=O)N[C@@H](CC(C)C)C(=O)N[C@@H](CCC(=O)O)C(=O)N[C@@H](CCC(N)=O)C(=O)N[C@@H](CCC(=O)O)C(=O)N[C@@H](CCCNC(=N)N)C(=O)N[C@@H](C)C(=O)N[C@@H](CCC(=O)O)C(=O)N[C@@H](CCCCN)C(=O)N[C@@H](C)C(=O)N[C@@H](CCCNC(=N)N)C(=O)N[C@@H](CCC(N)=O)C(=O)N[C@@H](CCC(N)=O)C(=O)N[C@@H](C)C(=O)N[C@@H](CCCCNC(=O)CC[C@H](NC(=O)CC[C@H](NC(=O)[C@@H](N)CCCCNC(=O)CCCCCCCCCCCCCCCCCCC(=O)O)C(=O)O)C(=O)O)C(=O)N[C@@H](CCC(=O)O)C(=O)N[C@@H](CC(N)=O)C(=O)N[C@H](C(=O)N[C@@H](CCC(=O)O)C(=O)N[C@H](C(=O)N[C@@H](CC(C)C)C(=O)N[C@@H](C)C(=O)N[C@@H](CCC(N)=O)C(=O)N[C@H](C(N)=O)C(C)C)[C@@H](C)CC)[C@@H](C)O)[C@@H](C)CC)[C@@H](C)O)C(C)C)[C@@H](C)O)C(C)C [SEQ ID NO: 38, Ac-IVTS αMeL D (D-Val) PTG αMeL LQIKLEQERAEKARQQAK(γE-γE-ϵK-CO-(CH2)18-CO2H)ENTEILAQV-NH2] (Ac-IVTS[αMeL]D[dV]PTG[αMeL]LQIKLEQERAEKARQQAK([γGlu-γGlu-εLys-C20 diacid])ENTEILAQV-NH2) | 6.3 ± 2.1 | 1.1e+06
2 | CC[C@H](C)[C@H](NC(C)=O)C(=O)N[C@H](C(=O)N[C@H](C(=O)N[C@@H](CO)C(=O)N[C@@](C)(CC(C)C)C(=O)N[C@@H](CC(=O)O)C(=O)N[C@@H](C(=O)N1CCC[C@H]1C(=O)N[C@H](C(=O)NCC(=O)N[C@@](C)(CC(C)C)C(=O)N[C@@H](CC(C)C)C(=O)N[C@@H](CCC(N)=O)C(=O)N[C@H](C(=O)N[C@@H](CCCCN)C(=O)N[C@@H](CC(C)C)C(=O)N[C@@H](CCC(=O)O)C(=O)N[C@@H](CCC(N)=O)C(=O)N[C@@H](CCC(=O)O)C(=O)N[C@@H](CCCNC(=N)N)C(=O)N[C@@H](C)C(=O)N[C@@H](CCC(=O)O)C(=O)N[C@@H](CCCCN)C(=O)N[C@@H](C)C(=O)N[C@@H](CCCNC(=N)N)C(=O)N[C@@H](CCC(N)=O)C(=O)N[C@@H](CCC(N)=O)C(=O)N[C@@H](C)C(=O)N[C@@H](CCCCNC(=O)CC[C@H](NC(=O)[C@@H](N)CCCCNC(=O)CC[C@H](NC(=O)CCCCCCCCCCCCCCCCCCC(=O)O)C(=O)O)C(=O)O)C(=O)N[C@@H](CCC(=O)O)C(=O)N[C@@H](CC(N)=O)C(=O)N[C@H](C(=O)N[C@@H](CCC(=O)O)C(=O)N[C@H](C(=O)N[C@@H](CC(C)C)C(=O)N[C@@H](C)C(=O)N[C@@H](CCC(N)=O)C(=O)N[C@H](C(N)=O)C(C)C)[C@@H](C)CC)[C@@H](C)O)[C@@H](C)CC)[C@@H](C)O)C(C)C)[C@@H](C)O)C(C)C [SEQ ID NO: 39, Ac-IVTS αMeL D (D-Val) PTG αMeL LQIKLEQERAEKARQQAK(γE-ϵK-γE-CO-(CH2)18-CO2H)ENTEILAQV-NH2] (Ac-IVTS[αMeL]D[dV]PTG[αMeL]LQIKLEQERAEKARQQAK([γGlu-εLys-γGlu-C20 diacid])ENTEILAQV-NH2) | 7.3 ± 0.8 | 3.7e+06
3 | CC[C@H](C)[C@H](NC(C)=O)C(=O)N[C@H](C(=O)N[C@H](C(=O)N[C@@H](CO)C(=O)N[C@@](C)(CC(C)C)C(=O)N[C@@H](CC(=O)O)C(=O)N[C@@H](C(=O)N1CCC[C@H]1C(=O)N[C@H](C(=O)NCC(=O)N[C@@](C)(CC(C)C)C(=O)N[C@@H](CC(C)C)C(=O)N[C@@H](CCC(N)=O)C(=O)N[C@H](C(=O)N[C@@H](CCCCN)C(=O)N[C@@H](CC(C)C)C(=O)N[C@@H](CCC(=O)O)C(=O)N[C@@H](CCC(N)=O)C(=O)N[C@@H](CCC(=O)O)C(=O)N[C@@H](CCCNC(=N)N)C(=O)N[C@@H](C)C(=O)N[C@@H](CCC(=O)O)C(=O)N[C@@H](CCCCN)C(=O)N[C@@H](C)C(=O)N[C@@H](CCCNC(=N)N)C(=O)N[C@@H](CCC(N)=O)C(=O)N[C@@H](CCC(N)=O)C(=O)N[C@@H](C)C(=O)N[C@@H](CCCCNC(=O)CNC(=O)[C@H](CCCCN)NC(=O)[C@H](CCC(=O)O)NC(=O)[C@H](CCCCN)NC(=O)[C@H](CCC(=O)O)NC(=O)[C@H](CCCCN)NC(=O)[C@H](CCC(=O)O)NC(=O)CC[C@H](NC(=O)CCCCCCCCCCCCCCCCCCC(=O)O)C(=O)O)C(=O)N[C@@H](CCC(=O)O)C(=O)N[C@@H](CC(N)=O)C(=O)N[C@H](C(=O)N[C@@H](CCC(=O)O)C(=O)N[C@H](C(=O)N[C@@H](CC(C)C)C(=O)N[C@@H](C)C(=O)N[C@@H](CCC(N)=O)C(=O)N[C@H](C(N)=O)C(C)C)[C@@H](C)CC)[C@@H](C)O)[C@@H](C)CC)[C@@H](C)O)C(C)C)[C@@H](C)O)C(C)C [SEQ ID NO: 43, Ac-IVTS αMeL D (D-Val) PTG αMeL LQIKLEQERAEKARQQAK(GKEKEKE-γE-CO-(CH2)18-CO2H)ENTEILAQV-NH2] | 7.9 ± 1.3 | > 1e+07
4 | CC[C@H](C)[C@H](NC(C)=O)C(=O)N[C@H](C(=O)N[C@H](C(=O)N[C@@H](CO)C(=O)N[C@@](C)(CC(C)C)C(=O)N[C@@H](CC(=O)O)C(=O)N[C@@H](C(=O)N1CCC[C@H]1C(=O)N[C@H](C(=O)NCC(=O)N[C@@](C)(CC(C)C)C(=O)N[C@@H](CC(C)C)C(=O)N[C@@H](CCC(N)=O)C(=O)N[C@H](C(=O)N[C@@H](CCCCN)C(=O)N[C@@H](CC(C)C)C(=O)N[C@@H](CCC(=O)O)C(=O)N[C@@H](CCC(N)=O)C(=O)N[C@@H](CCC(=O)O)C(=O)N[C@@H](CCCNC(=N)N)C(=O)N[C@@H](C)C(=O)N[C@@H](CCC(=O)O)C(=O)N[C@@H](CCCCN)C(=O)N[C@@H](C)C(=O)N[C@@H](CCCNC(=N)N)C(=O)N[C@@H](CCC(N)=O)C(=O)N[C@@H](CCC(N)=O)C(=O)N[C@@H](C)C(=O)N[C@@H](CCCCNC(=O)COCCOCCNC(=O)CC[C@H](NC(=O)CC[C@H](NC(=O)CCCCCCCCCCCCCCCCCCC(=O)O)C(=O)O)C(=O)O)C(=O)N[C@@H](CCC(=O)O)C(=O)N[C@@H](CC(N)=O)C(=O)N[C@H](C(=O)N[C@@H](CCC(=O)O)C(=O)N[C@H](C(=O)N[C@@H](CC(C)C)C(=O)N[C@@H](C)C(=O)N[C@@H](CCC(N)=O)C(=O)N[C@H](C(N)=O)C(C)C)[C@@H](C)CC)[C@@H](C)O)[C@@H](C)CC)[C@@H](C)O)C(C)C)[C@@H](C)O)C(C)C [SEQ ID NO: 44, Ac-IVTS αMeL D (D-Val) PTG αMeL LQIKLEQERAEKARQQAK((2-[2-(2-Amino-ethoxy)-ethoxy]-acetyl)-(γE)2-CO-(CH2)18-CO2H)ENTEILAQV-NH2] (Ac-IVTS[αMeL]D[dV]PTG[αMeL]LQIKLEQERAEKARQQAK([AEEA-γGlu-γGlu-C20 diacid])ENTEILAQV-NH2) | 5.4 ± 0.5 | > 1e+07

Further lines, results first:

Row | EC50 (human CRHR2) [pM] | EC50 (human CRHR1) [pM] | Compound
5 | 18.3 ± 2.1 | > 1e+07 | Ac-GSPSIVTS[αMeL]DVPT[Aib][αMeL]LQKILEQERAEKARQQAK([AEEA-Pro-Lys-Glu-γGlu-C20 diacid])EAAEILAQV-NH2 [SEQ ID NO: 3, Ac-GSPSIVTS αMeL DVPT Aib αMeL LQKILEQERAEKARQQAK((2-[2-(2-Amino-ethoxy)-ethoxy]-acetyl)-PKE-γE-CO-(CH2)18-CO2H)EAAEILAQV-NH2]
6 | 20.3 ± 2.9 | > 1e+07 | Ac-GSPSIVTS[αMeL]DVPT[Aib][αMeL]LQKILEQERAEKARQQAK([Ahx-AEEA-γGlu-C20 diacid])EAAEILAQV-NH2 [SEQ ID NO: 4, Ac-GSPSIVTS αMeL DVPT Aib αMeL LQKILEQERAEKARQQAK(Ahx-(2-[2-(2-Amino-ethoxy)-ethoxy]-acetyl)-γE-CO-(CH2)18-CO2H)EAAEILAQV-NH2]
7 | 11 ± 0.9 | > 1e+07 | Ac-GSPSIVTS[αMeL]DVPT[Aib][αMeL]LQKILEQERAEKARQQAK([Gly-βAla-βAla-βAla-βAla-γGlu-C20 diacid])EAAEILAQV-NH2 [SEQ ID NO: 8, Ac-GSPSIVTS αMeL DVPT Aib αMeL LQKILEQERAEKARQQAK(G-(βA)4-γE-CO-(CH2)18-CO2H)EAAEILAQV-NH2]
8 | 10.6 ± 1.4 | > 1e+07 | Ac-GSPSIVTS[αMeL]DVPT[Aib][αMeL]LQKILEQERAEKARQQAK([Gly-βAla-βAla-βAla-γGlu-C20 diacid])EAAEILAQV-NH2 [SEQ ID NO: 7, Ac-GSPSIVTS αMeL DVPT Aib αMeL LQKILEQERAEKARQQAK(G-(βA)3-γE-CO-(CH2)18-CO2H)EAAEILAQV-NH2]
